Patent US4643991A (The University of Kentucky Research Foundation, priority 1984, dated 1987)
Read-outs that look alike come from different tables or passages of the source. Values belong to the compound of their own block, whether it stands above or below them.

Columns and labels:
[1] = target: porcine pancreatic elastase (Sus scrofa, UniProt P00772); assay: Inhibition of porcine pancreatic (PP) elastase in vitro, substrate BOC-Ala-ONp, Lineweaver-Burk and Dixon plots; assay type: biochemical; settings: for PPE (inhibitory activity towards PP elastase): Table 4
Protocol: As pointed out above, the compounds of the invention are useful as elastase inhibitors. To evaluate the compounds, the inhibitory activity of the compounds were tested in vitro against the serine dependent proteolytic enzymes, trypsin, chymotrypsin and porcine pancreatic elastase. All three enzymes belong to the family of serine proteases where the catalytic residues are composed of a triad of amino acid residues, serine, histidine and aspartic acid that actually perform the peptide bond hydrolysis. In addition to the catalytic residues, the active site is composed of an extended substrate binding site that consists of a primary substrate binding site S1, and various subsites on either side of the scissile bond.
The rate and extent of inhibition could be effected by varying the structure of R and R'. As shown from kinetic parameters when R is p-nitrophenol, and R' was varied, all the peptidyl carbamates inhibited PP elastase except when R' was a tert-butyl group. […] In all cases the inhibition was specific and competitive. […] Moreover, the nature of the protecting group (P5) seemed to affect the affinity of the inhibitor for the enzyme. In all these cases the inhibition was studied at different substrate and inhibitor concentrations and the mode of inhibition determined from Lineweaver-Burk and Dixon plots. Ki values were calculated from the latter. […] The enzymatic activity of PP elastase after treatment with the inhibitor(s) was also tested using the natural substrate elastin-congored.

HL elastase = target: T1, HL elastase (Homo sapiens, UniProt P08246); assay: Inhibition of human leukocyte (HL) elastase; assay type: biochemical; settings: Table 4; [E] = 0.61 μM
T1 sequence (P08246 30-267): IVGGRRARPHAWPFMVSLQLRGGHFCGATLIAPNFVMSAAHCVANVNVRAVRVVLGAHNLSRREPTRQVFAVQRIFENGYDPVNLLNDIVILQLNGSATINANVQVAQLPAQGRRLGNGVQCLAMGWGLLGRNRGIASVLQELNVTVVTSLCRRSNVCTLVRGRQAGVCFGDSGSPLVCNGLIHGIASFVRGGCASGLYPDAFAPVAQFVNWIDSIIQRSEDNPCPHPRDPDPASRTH

[2] = Table 1, changes in P1', PP elastase, read-out: Ki
[3] = Table 1, changes in P1', [E] = 0.61 μM
[4] = Table 2, changes in P1, [E] = 0.61 μM
[5] = Table 3, variations in P5 and P3

Chain of porcine pancreatic elastase (P00772 27-266): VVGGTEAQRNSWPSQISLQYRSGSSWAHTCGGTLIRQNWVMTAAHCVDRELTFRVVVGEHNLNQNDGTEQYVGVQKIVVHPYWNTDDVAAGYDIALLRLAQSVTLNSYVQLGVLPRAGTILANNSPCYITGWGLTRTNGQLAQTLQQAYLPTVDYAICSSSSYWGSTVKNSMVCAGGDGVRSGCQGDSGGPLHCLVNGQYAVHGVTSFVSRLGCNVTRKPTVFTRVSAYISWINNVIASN

Km ([1]; substrate of PP elastase assay): 4.8 mM
Compound: C[C@H](NC(=O)OC(C)(C)C)C(=O)Oc1ccc([N+](=O)[O-])cc1 [BOC-Ala-ONp, reference compound]

Hydrolysis by PP elastase ([1]; detected by the release of p-nitrophenol): hydrolysis of 6 by PP elastase
Compound: CC(C)N(CC(=O)[C@@H]1CCCN1C(=O)OC(C)(C)C)C(=O)Oc1ccc([N+](=O)[O-])cc1 [Compound 6, p-Nitrophenyl N-(N'-t-Boc-L-prolyl)Methyl-N-Isopropylcarbamate]

Ki [1, 2]: 42.5 µM
Comments (inhibition of PP elastase) [1, 3]: +
Comments (inhibition of PP elastase) [1, 4]: +
Compound: COC(=O)CCC(=O)N[C@@H](C)C(=O)N[C@@H](C)C(=O)N1CCC[C@H]1C(=O)CN(C(=O)Oc1ccc([N+](=O)[O-])cc1)C(C)C [Compound 10, p-Nitrophenyl N-(Methy Succinyl-L-Alanyl-L-Alanyl-L-Prolymethyl)-N-Isopropyl Carbamate]

Ki [1, 2]: 32.5 µM
Comments (inhibition of PP elastase) [1, 3]: +
Compound: COC(=O)CCC(=O)N[C@@H](C)C(=O)N[C@@H](C)C(=O)N1CCC[C@H]1C(=O)CN(C(=O)Oc1ccccc1)C(C)C [Compound 11, Phenyl N-(Methyl Succinyl-L-Alanyl-L-Alanyl-L-Prolyl Methyl)-N-Isopropyl Carbamate]

Compound: COC(=O)CCC(=O)N[C@@H](C)C(=O)N[C@@H](C)C(=O)N1CCC[C@H]1C(=O)CN(C(=O)Sc1nnnn1C)C(C)C [Compound 18]
Ki [1, 2]: 14.8 µM
Comments (inhibition of PP elastase) [1, 3]: +

Ki ([1]; Table 2, changes in P1, PP elastase, read-out: Ki): 30.5 µM
Comments (inhibition of PP elastase) [1, 4]: +
Compound: CCCN(CC(=O)[C@@H]1CCCN1C(=O)[C@H](C)NC(=O)[C@H](C)NC(=O)CCC(=O)OC)C(=O)Oc1ccc([N+](=O)[O-])cc1 [Compound 29, P-Nitrophenyl N-(methyl succinyl-L-alanyl-L-alanyl-L-prolylmethyl) N-propylcarbamate]

Comments (inhibition of PP elastase) [1, 4]: +
Compound: COC(=O)CCC(=O)N[C@@H](C)C(=O)N[C@@H](C)C(=O)N1CCC[C@H]1C(=O)CN(C(=O)Oc1ccc([N+](=O)[O-])cc1)C1CC1 [Compound 32, P-Nitrophenyl N-(methyl succinyl-L-alanyl-L-analyl-L-prolylmethyl)-N-cyclopropylcarbamate]

Compound: COC(=O)CCC(=O)N[C@@H](C)C(=O)N[C@@H](C)C(=O)N1CCC[C@H]1C(=O)CN(CC(C)C)C(=O)Oc1ccc([N+](=O)[O-])cc1 [Compound 47, p-Nitrophenyl N-(methylsuccinyl-L-alanyl-L-alanyl-L-prolylmethyl)-N-(2-methyl)propylcarbamate]
PPE (inhibitory activity towards PP elastase) ([1]; [E] = 0.61 μM): - (No inhibition at [I] < 150 μM using [E] = 0.61 μM.)

Compound: COC(=O)CCC(=O)N[C@@H](C)C(=O)N[C@@H](C)C(=O)N1CCC[C@H]1C(=O)CN(Cc1ccccc1)C(=O)Oc1ccc([N+](=O)[O-])cc1 [Compound 51, P-Nitrophenyl N-(methyl succinyl-L-alanyl-L-alanyl-L-prolylmethyl)-N-phenylmethylcarbamate]
PPE (inhibitory activity towards PP elastase) ([1]; [E] = 0.61 μM): - (No inhibition at [I] < 150 μM using [E] = 0.61 μM.)
HLE (inhibitory activity towards HL elastase) (HL elastase): - (No inhibition at [I] < 150 μM using [E] = 0.61 μM.)

Compound: COC(=O)CCC(=O)N[C@@H](C)C(=O)N[C@@H](C)C(=O)N1CCC[C@H]1C(=O)CN(C(=O)Oc1ccc([N+](=O)[O-])cc1)C1CCCCC1 [Compound 55, P-Nitrophenyl N-(methyl succinyl-L-alanyl-L-alanyl-L-prolylmethyl)-N-cyclohexylcarbamate]
PPE (inhibitory activity towards PP elastase) ([1]; [E] = 0.61 μM): - (No inhibition at [I] < 150 μM using [E] = 0.61 μM.)
HLE (inhibitory activity towards HL elastase) (HL elastase): - (No inhibition at [I] < 150 μM using [E] = 0.61 μM.)

Ki [1, 2]: 37.5 µM
Comments (inhibition of PP elastase) [1, 3]: +
Comments (inhibition of PP elastase) [1, 5]: +
Compound: COC(=O)CCC(=O)N[C@@H](C)C(=O)N[C@@H](C)C(=O)N1CCC[C@H]1C(=O)CN(C(=O)Oc1c(F)c(F)c(F)c(F)c1F)C(C)C [Compound 58, Pentafluorophenyl N-(methyl succinyl-L-analyl-L-alanyl-L-prolymethyl)-N-isopropyl-carbamate]

Compound: COC(=O)CCC(=O)N[C@@H](C)C(=O)N[C@@H](C)C(=O)N1CCC[C@H]1C(=O)CN(C(=O)OCC(F)(F)C(F)(F)C(F)(F)F)C(C)C [Compound 61, Heptafluorobutyl N-(methyl succinyl-L-alanyl-L-alanyl-L-prolylmethyl)-N-isopropylcarbamate]
Comments (inhibition of PP elastase) [1, 3]: +

Compound: COC(=O)CCC(=O)N[C@@H](C)C(=O)N[C@@H](C)C(=O)N1CCC[C@H]1C(=O)CN(C)C(=O)Oc1ccc([N+](=O)[O-])cc1 [Compound 68, p-Nitropheny N-(methyl succinyl-L-alanyl-L-alanyl-L-prolymethyl)-N-methyl-carbamate]
Comments (inhibition of PP elastase) [1, 4]: +

Compound: COC(=O)CCC(=O)N[C@@H](C)C(=O)N[C@@H](C)C(=O)N1CCC[C@H]1C(=O)CN(C(=O)Oc1ccc([N+](=O)[O-])cc1)C(C)(C)C [Compound 72]
Comments (inhibition of PP elastase) [1, 4]: - (NO INHIBITION OF PP ELASTASE AT [I] < 150 μM USING [E] = 0.61 μM)

Compound: CC(C)N(CC(=O)[C@@H]1CCCN1C(=O)[C@H](C)NC(=O)[C@H](C)NC(=O)C(F)(F)F)C(=O)Oc1c(F)c(F)c(F)c(F)c1F [Compound 93, Pentafluorophenyl N-(trifluoroacetyl-L-alanyl-L-alanyl-L-prolylmethyl)-N-isopropylcarbamate]
Ki [1]: 49 µM
Comments (inhibition of PP elastase) [1, 5]: +
